Patent US20210023089A1, “Compositions Useful for Treating Herpes Simplex Keratitis, and Methods Using Same” (priority 2013, published 2021)

What was measured:
HSV-1 [1] = experiment: Plaque assay of supernatants from HSV-1 infected HCE cells; format: cell-based, HSV-1 (KOS strain); conditions: MOI 0.1, 10 μM, vs controls
Experimental: All cells were cultured at 37° C. and 5% CO2, and supplemented with 100 U/ml penicillin and 100 μg/ml streptomycin. Human corneal epithelial cells immortalized with hTERT (hTCEpi; Bahassi et al., 2008, Oncogene 27:3977-3985) were grown in complete KGM-2 medium. Human corneal epithelial cells immortalized with SV40 large T antigen (HCE; Araski-Sasaki et al., 1995, Invest. Ophthalmol. Visual Sci. 36:614-621), as well as African green monkey kidney fibroblasts (CV-1; Jensen et al., 1964, Proc. Natl. Acad. Sci. USA 52:53-59), were grown in DMEM medium supplemented with 10% FBS. KOS strain (Smith, Proc. Soc. Exp. Biol. Med. Soc. Exp. Biol. Med. 115:814-816) of HSV-1 was used in all infections. All viral stocks were titered on CV-1 monolayers.
Cells were grown in 6-well plates and used in experiments at […] confluence. Drug treatments were administered 45 min prior to infection and continued for the entire duration of each experiment. Unless indicated otherwise, Chk2 inhibitor II (>98% purity by HPLC) was used at 10 μM final concentration, and phosphonoacetic acid (PAA) at 400 μg/ml (both from Sigma-Aldrich, St. Louis, Mo.). Chk2 inhibitor II was dissolved in DMSO such that the final concentration of DMSO in both Chk2 inhibitor II and mock treatment was 0.1%. […]

HSV-1 [2] = experiment: Time-of-addition of KU-55933 in HSV-1 infected hTCEpi cells (Western blot gC, qRT-PCR genome); format: cell-based; conditions: MOI 1, KU-55933 10 μM, read at 8 hpi
Experimental: Standard protocol was followed for Western blot analysis. Cell lysates were collected in Laemmli buffer, vortexed, and boiled at 95° C. for 5 min. Protein concentrations were measured by reducing agent-compatible BCA assay. SDS-PAGE was followed by transfer onto a PVDF membrane, which was then blocked in 5% BSA. Primary antibody staining was performed overnight and blots were visualized on film or with the Odyssey near-infrared system (LI-COR, Lincoln, Nebr.). Primary antibodies against the following proteins were used: ICP0 (Virusys Corporation, Taneytown, Md.), ICP4, PML, and nucleolin (Santa Cruz Biotechnology, Santa Cruz, Calif.), ICP8, glycoproteins B and C, ATM and pATM-Ser1981 (Rockland, Gilbertsville, Pa.), Chk2 and pChk2-Thr68 (Cell Signaling, Danvers, Mass.).
Total DNA was isolated from infected cells using the DNeasy Blood & Tissue Kit (QIAGEN, Hilden, Germany). Real time quantitative PCR was performed with SYBR Green (Bio-Rad, Hercules, Calif.). Target primers for UL30 (DNA polymerase catalytic subunit) and reference primers for GAPDH were used to measure genome replication. Primer sequences were provided in Alekseev et al., 2014, Invest. Ophthalm. Vis. Sci. 55:706-715). Real time PCR data were processed using the ΔΔC(t) method.
hTCEpi, EPC2, and OKF6 are normal human epithelial cells from cornea, esophagus, and palate, respectively. […]

ATM = target: T1, ATM (Homo sapiens, UniProt Q13315); experiment: pATM Western blot in bleomycin-damaged ex vivo human corneas (bioavailability); format: cell-based; conditions: bleomycin 200 μg/mL 1 hour, KU-55933 10 μM 1 hour pretreatment
T1 construct: The epithelial layers were collected for protein lysates and analyzed by Western blot with antibodies against pATM (Ser1981) and total ATM; tissue Lions Eye Bank of Delaware Valley; host or cells: epithelial layer of explanted human corneas
Experimental: Human corneas were obtained from the Lions Eye Bank of Delaware Valley. Rabbit corneas were excised from intact fresh eyeballs of young (8-12 weeks) albino rabbits (Pel-Freez Biologicals, Rogers, Ark.). Protocol (Alekseev et al., 2012, J Vis Exp 69:e3631) for ex vivo corneal culture, infection, and treatment was followed closely. Briefly, corneoscleral buttons were excised and rinsed in PBS containing 200 U/mL penicillin and 200 μg/mL streptomycin. The endothelial concavity was filled with culture medium containing 1% low melting temperature agarose. The corneas were cultured epithelial side up in MEM medium supplemented with nonessential amino acids (1×), 2 mM […], 200 U/mL penicillin, and 200 μg/mL streptomycin. The next day, they were infected with 1×10^4 plaque forming units (PFU)/cornea of strain KOS HSV-1 for 1 hour, rinsed, and overlaid with fresh medium. Drug treatments were administered at the same concentrations as for cultured cells. For KU-55933 bioavailability assessment, corneas were treated with bleomycin (200 μg/mL) for 1 hour. […] Treatment toxicity was assessed by briefly staining the cornea with fluorescein (1% wt/vol in PBS) and imaging the epithelial defects with 464-nm wavelength blue light (LDP LLC, Carlstadt, N.J.).
Standard protocol was followed for Western blot analysis. […] Protein concentrations were measured by bicinchoninic acid (BCA) assay. […]

T1 sequence (Q13315 whole entry): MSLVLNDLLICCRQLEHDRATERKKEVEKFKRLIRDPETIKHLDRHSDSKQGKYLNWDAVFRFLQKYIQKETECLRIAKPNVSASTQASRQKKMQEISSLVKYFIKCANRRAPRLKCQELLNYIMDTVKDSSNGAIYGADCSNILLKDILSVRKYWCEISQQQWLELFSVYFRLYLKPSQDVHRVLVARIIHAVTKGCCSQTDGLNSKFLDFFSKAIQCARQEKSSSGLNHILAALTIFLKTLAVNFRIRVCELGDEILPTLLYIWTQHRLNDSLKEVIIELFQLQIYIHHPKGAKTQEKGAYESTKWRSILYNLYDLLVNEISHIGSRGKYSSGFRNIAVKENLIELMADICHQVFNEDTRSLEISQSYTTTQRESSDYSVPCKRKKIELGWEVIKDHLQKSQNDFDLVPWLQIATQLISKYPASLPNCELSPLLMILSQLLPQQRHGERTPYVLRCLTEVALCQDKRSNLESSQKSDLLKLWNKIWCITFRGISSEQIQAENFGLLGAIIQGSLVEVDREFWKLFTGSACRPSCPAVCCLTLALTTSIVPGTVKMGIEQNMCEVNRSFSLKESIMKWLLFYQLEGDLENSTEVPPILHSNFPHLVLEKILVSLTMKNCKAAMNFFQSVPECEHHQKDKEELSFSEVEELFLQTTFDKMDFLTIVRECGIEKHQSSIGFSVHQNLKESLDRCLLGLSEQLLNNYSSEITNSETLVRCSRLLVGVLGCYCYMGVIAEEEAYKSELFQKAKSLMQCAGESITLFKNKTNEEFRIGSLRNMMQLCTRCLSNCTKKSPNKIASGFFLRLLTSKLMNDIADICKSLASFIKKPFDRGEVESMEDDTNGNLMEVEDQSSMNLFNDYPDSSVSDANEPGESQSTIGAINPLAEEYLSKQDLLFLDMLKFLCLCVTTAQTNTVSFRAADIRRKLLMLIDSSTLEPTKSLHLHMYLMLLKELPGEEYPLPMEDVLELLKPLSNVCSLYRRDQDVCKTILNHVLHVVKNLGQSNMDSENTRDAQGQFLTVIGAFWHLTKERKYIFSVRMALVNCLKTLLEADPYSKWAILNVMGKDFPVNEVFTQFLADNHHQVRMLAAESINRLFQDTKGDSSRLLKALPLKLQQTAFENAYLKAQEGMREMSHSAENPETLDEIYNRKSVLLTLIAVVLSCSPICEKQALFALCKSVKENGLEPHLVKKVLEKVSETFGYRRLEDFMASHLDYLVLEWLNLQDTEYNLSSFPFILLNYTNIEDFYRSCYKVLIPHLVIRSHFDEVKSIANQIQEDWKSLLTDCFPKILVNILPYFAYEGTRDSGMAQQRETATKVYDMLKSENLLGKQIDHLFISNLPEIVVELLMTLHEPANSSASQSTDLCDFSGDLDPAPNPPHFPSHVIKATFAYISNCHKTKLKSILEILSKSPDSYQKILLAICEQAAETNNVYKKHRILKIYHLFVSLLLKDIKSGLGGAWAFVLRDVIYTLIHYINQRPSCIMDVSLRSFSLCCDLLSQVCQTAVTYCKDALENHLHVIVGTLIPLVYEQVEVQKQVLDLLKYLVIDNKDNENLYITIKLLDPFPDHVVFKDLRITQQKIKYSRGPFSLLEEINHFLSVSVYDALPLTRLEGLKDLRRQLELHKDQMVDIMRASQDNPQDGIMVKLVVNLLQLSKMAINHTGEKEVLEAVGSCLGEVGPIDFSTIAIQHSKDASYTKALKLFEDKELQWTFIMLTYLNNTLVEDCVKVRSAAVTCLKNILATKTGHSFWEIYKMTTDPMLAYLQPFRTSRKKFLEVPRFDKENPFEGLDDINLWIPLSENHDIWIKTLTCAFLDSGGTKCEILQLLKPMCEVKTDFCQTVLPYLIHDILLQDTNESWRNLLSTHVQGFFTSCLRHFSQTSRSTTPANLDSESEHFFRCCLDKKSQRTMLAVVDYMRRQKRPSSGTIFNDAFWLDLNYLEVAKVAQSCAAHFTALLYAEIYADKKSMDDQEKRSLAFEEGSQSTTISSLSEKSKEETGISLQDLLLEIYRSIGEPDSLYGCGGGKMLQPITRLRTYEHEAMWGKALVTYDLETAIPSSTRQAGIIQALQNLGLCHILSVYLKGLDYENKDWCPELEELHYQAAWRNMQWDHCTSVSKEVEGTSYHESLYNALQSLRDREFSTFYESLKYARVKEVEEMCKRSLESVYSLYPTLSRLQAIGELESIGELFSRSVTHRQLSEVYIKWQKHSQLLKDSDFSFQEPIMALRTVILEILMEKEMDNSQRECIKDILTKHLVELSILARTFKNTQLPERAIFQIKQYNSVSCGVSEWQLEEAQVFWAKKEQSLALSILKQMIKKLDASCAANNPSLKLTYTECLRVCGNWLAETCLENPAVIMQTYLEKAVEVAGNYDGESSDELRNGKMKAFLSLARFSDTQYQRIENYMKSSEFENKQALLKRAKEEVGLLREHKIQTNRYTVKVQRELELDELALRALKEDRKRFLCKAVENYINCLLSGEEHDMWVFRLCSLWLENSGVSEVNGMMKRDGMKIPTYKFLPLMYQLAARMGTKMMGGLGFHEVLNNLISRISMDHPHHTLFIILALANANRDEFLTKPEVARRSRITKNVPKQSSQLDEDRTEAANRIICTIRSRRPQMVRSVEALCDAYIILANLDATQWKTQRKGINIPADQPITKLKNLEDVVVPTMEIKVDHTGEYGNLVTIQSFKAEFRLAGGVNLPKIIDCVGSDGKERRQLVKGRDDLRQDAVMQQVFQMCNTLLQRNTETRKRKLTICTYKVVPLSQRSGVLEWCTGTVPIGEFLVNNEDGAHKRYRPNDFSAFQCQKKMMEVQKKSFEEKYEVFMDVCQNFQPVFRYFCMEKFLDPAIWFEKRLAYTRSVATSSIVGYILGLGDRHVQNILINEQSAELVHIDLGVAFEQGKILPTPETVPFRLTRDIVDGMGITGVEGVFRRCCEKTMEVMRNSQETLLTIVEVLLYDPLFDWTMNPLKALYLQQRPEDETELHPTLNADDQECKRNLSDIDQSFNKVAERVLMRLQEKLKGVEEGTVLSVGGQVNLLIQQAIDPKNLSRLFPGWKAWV

NC(=O)c1ccc2[nH]c(-c3ccc(Oc4ccc(Cl)cc4)cc3)nc2c1 [Chk2 inhibitor II, 2-(4-(4-chlorophenoxy)phenyl)-1H-benzimidazole-5-carboxamide]
generation of infectious viral particles (plaque assay) (HSV-1 [1]): reduction

O=c1cc(-c2cccc3c2Sc2ccccc2S3)oc(N2CCOCC2)c1 [KU-55933, 2-(morpholin-4-yl)-6-(thianthren-1-yl)-pyran-4-one]
viral replication, treatment administered at 1 hpi and later (HSV-1 [2]): significantly less effect | viral replication, treatment started prior to the 1 hpi timepoint (HSV-1 [2]): notable reduction | pATM level in corneal epithelium (ATM): completely eliminated
